Key:
[1] = Relative lipopeptide levels in supernatants by LC-MS; format: physicochemical; details: Example 4
Experimental: Bacillus subtilis QST713 WB and Bacillus subtilis QST713 BC were prepared as described in the previous examples. […] Combinations of Bacillus subtilis QST713 BC with 3% (w/w) ANS or 5% (w/w) ANS were also prepared. […] To determine relative amounts of lipopeptides in the combinations samples were centrifuged to obtain the supernatant layer relatively free of spores. It was then filtered and separated on an analytical HPLC column and detected with a mass spectrometer (i.e., via LC-MS).
Peaks containing lipopeptides were identified by analysis of mass to charge (m/z) ratios. For example, “Iturin_1043_B” corresponds with an iturin peak in which the predominant m/z ratio detected by the mass spectrometer was 1043 corresponding with the molecular formula of C48H74N12O14. Relative quantification was performed by comparing the peak areas in the samples to those in an extract of a Bacillus subtilis QST713 WB used across different experiments as a reference standard.
For purposes of comparison, an aliquot of the Bacillus subtilis QST713 WB that was present in the ANS combinations was also analyzed for relative lipopeptides levels. The Bacillus subtilis QST713 WB (the “Extracted” sample in FIG. 2) and a supernatant of the Bacillus subtilis QST713 WB removed after centrifugation (the “Supernatant” sample in FIG. 2) were analyzed via LC-MS. […]

Botrytis cinerea = Botrytis cinerea disease control assay on treated plants inoculated with spore suspension; format: in vivo; details: Example 1; bell pepper plants
Experimental: Subsequently, the plants were inoculated with a spore suspension of Botrytis cinerea. Several days later when disease was evident in the untreated control plants the plants were evaluated for percent disease control. The results shown in Table 1 are the average values of four independent measurements. A relatively high disease pressure affecting 100% of plants in the untreated control group was present. Percent disease control was scored with 0% indicating no difference in disease from the untreated control plants and 100% indicating no observable disease in the plants. […]
Bacillus subtilis QST713 WB and BC were prepared as described in the previous examples. […] Subsequently, the plants were inoculated with a spore suspension of Botrytis cinerea and scored for percent disease control when disease was evident in 100% of the untreated control plants. […]
Bacillus subtilis QST713 WB was prepared as described in the previous examples. […] Four replicate measurements of disease control were evaluated for each treatment, and the average values are presented in the plot shown in FIG. 4.
Each of the combinations was also evaluated for antifungal activity using the Botrytis cinerea assay described in the previous examples.

Substance: sodium diisopropyl naphthalene sulfonate [ANS]
- relative amounts of iturins in the supernatant ([1]; 3% ANS in WB compared with 3% Adjuvant 1): about two to three times greater
- lipopeptides in the supernatants, in words ([1]; increase from 3% to 5% of ANS, WB and BC): corresponding increase of lipopeptides
- antifungal activity / disease control, in words (Botrytis cinerea): no observable disease control
